This is an account of results in PMC4965013, “Open Source Drug Discovery with the Malaria Box Compound Collection for Neglected Diseases and Beyond” (PLoS Pathogens, 2016).

As usually defined, the EC50 is the concentration needed to bring the measured effect to its halfway point. As a reminder, the inhibition is the relative decrease from the control value, in per cent. For orientation: AUC means the area under the concentration-time curve, a measure of exposure. High values mean high exposure, low ones low exposure. Usually Cmax stands for the highest concentration seen after dosing.

Each structure is given as a SMILES string. Where two headings read alike, the source gives them in different places.

Series [1] concerns U87-CD4-CCR5 or U87-CD4-CXCR4 cells. Nature of the series: U87 cell viability MTT. It is filed as cell-based.
Another series has as its system T. cruzi Tulahuen. The conditions noted are these: ref [84]; read-out: Trypanosoma cruzi Tulahuen intracellular amastigotes in MRC5 cell line EC50; cited from earlier work.
Series [2] has as its system Trypanosoma brucei rhodesiense STIB 900. The conditions noted are these: ref [84]; cited from earlier work.
The test system of a further series is zebrafish embryos. As to the kind of experiment: Zebrafish embryo toxicity, mortality, behaviour. The conditions noted are these: 10µM. It is filed as in vivo. As to the method:
Columns FE-FG: BIOBIDE group (data presented first in this paper). Zebrafish embryo toxicity, mortality, and behaviour change. 3 days post fertilization (dPf) zebrafish embryos from AB strain (wild type) were used for in vivo toxicity and behavioural screening. […] Then, embryos were incubated with each compound at 10 µM (1% DMSO) in E3 buffered with HEPES at 10 mM for 48 hours in 24 well plates, 5 embryos per well, 3 wells per condition (n=15). A group treated only with the vehicle was included in each plate as negative control. Afterwards, mortality and morphological alterations were assessed. Toxicity: When an altered phenotype (mortality, developmental abnormalities) appeared in more than 20% of cases it was considered toxic. […] For this purpose, 5dPf larvae (treated and negative controls) were transferred from 24-well treatment plate to 96-well plate, one embryo per well. 96-well plate was introduced in DanioVision system powered by Ethovision (Noldus). The behaviour was evaluated recording a total of 40 minutes in a round of 10 minutes under light and 10 minutes in darkness repeated twice. As activity is expected to differ under light and dark periods, the analysis was performed for each one of the 10 minutes phases. The differences between treated and controls for each parameter (distance, velocity) and phase was considered significant if p value is less than 0.005 (scored y for yes in HeatMap). Also, the p values between 0.01 and 0.005 were taken into account as an indicator of tendency (scored m for maybe in heat map). The toxic character of a compound was determined by the consistent differences (in both dark and light periods) between treated embryos and controls. […] If consistent results could not be obtained, the compound was scored i for indeterminate.

Series [3] deals with P. falciparum NF54Pfs16 gametocytes stage IV-V. The conditions noted are these: 5µM; ref [62]; cited from earlier work.
The subject of series [4] is HIV-1 JR-FL or HIV-1 NL4-3 pseudoviruses. As to the kind of experiment: HIV-1 pseudovirus infection luciferase. It is filed as cell-based. As to the method: Columns FK-GB, Moore group (data presented first in this paper). HIV and HIV-producing cell lines, toxicity and viral suppression. […] MMV compounds were incubated with HIV-1 JR-FL or HIV-1 NL4-3 pseudoviruses and U87-CD4-CCR5 or U87-CD4-CXCR4 cells (obtained through the NIH AIDS Reagent Program, Division of AIDS, NIAID, NIH: U87 CD4+CCR5+ Cells from Dr. HongKui Deng and Dr. Dan R. Littman) respectively for 3 days. Cells were assayed for infection by luciferase production (Bright-Glo Luciferase Substrate, Promega) and cell viability by MTT assay. […] MMV compounds were next incubated with HIV-1 JR-FL or HIV-1 NL4-3 viruses and U87-CD4-CCR5 or U87-CD4-CXCR4 cells respectively for 7 days. Cell supernatants were assayed for viral production by p24 ELISA [153] and cell viability by MTT assay. […] DMSO (5%) was completely toxic to all cells (based on visual inspection) and served as the positive control for MTT assays.

Series [5] is described as follows: Mouse oral PK single dose. Type of series: in vivo. The conditions noted are these: male, CD-1, mouse, plasma, 140 umol/kg; 140 μmol/kg oral. As to the method:
Columns GD-GJ: Wuxi Inc. data for MMV (data presented first in this paper) PK/DMPK Parameters: Fasted animals (Male CD-1 mouse, 7-9 weeks age, 30±10 g, n=3) obtained from an approved vendor (SLAC Laboratory Animal Co. Ltd., Shanghai, China or Sino-British SIPPR/BK Laboratory Animal Co. Ltd Shanghai, China) were administered with a single oral dose (140 μmol/kg) using DMSO: 1% HPMC (5:95) as a vehicle. Blood sampling was performed via the submandibular or saphenous vein (t=0.083, 0.25, 1, 2, 4, 6 and 9 h) and transferred into microcentrifuge tubes containing Sodium Heparin (1,000 IU/ml) as anti-coagulant placed on wet ice until processed for plasma by centrifugation at approximately 4°C, 3000×g for 15 min. Plasma samples were stored in polypropylene tubes, quick frozen over dry ice and kept at -70±10°C until LC/MS/MS analysis. LC/MS/MS methods for the quantitative determination compounds plasma levels were developed with an internal standard. […] (Phoenix WinNonlin, version 6.2.1, Pharsight, Mountain View, CA) and expressed as Cmax & AUC0-last. […] AUC0-last is the area under the curve expressed as >12 h*μM (Yes or No). Plasma protein binding assay (PPB) (CD-1 mouse and human) expressed as <95% bound, >95% bound, or >99% bound. Kinetic Solubility at pH 7.4 was determined by liquid chromatography/chemiluminescence nitrogen detection (LC/CLND) and was scored as greater than 20µM (Yes or No). hERG inhibition was measured at 11µM by the QPatch- HT system and is expressed as “Yes” if greater than 45% inhibited at 11µM and “No” if less than or equal to 45% inhibited at 11µM. As part of the Drug-Drug Interaction studies (DDI issues), 5 human and 1 mouse CYP isoforms (1A2, 2C9, 2C19, 2D6, 3A4-M, 3A4-T) were tested for inhibition assay at 10 µM. […] Otherwise DDI issues were scored as “No”. Positive and negative controls were run for each assay (Table 1).

Series [6] deals with P. falciparum NF54 GFP-Pfs16 gametocytes stage I-III. The conditions noted are these: ref [64], cited from earlier work.
The test system of series [7] is P. falciparum 3D7, HB3, Dd2, W2, K1, FCR3. As to the kind of experiment: Asexual EC50 image assay, six strains, Ayong. Type of series: cell-based. The conditions noted are these: Plasmodium falciparum; read-out: P. falciparum Dd2 asexual blood stage EC50 (Image) Ayong.
The test system of another series is wild type yeast cells. Nature of the series: WT yeast (PMT assay control). The conditions noted are these: Saccharomyces cerevisiae.

For `CCOC(=O)c1cnc2ccc(OC)cc2c1NCc1ccccc1` [MMV665813], in series [1] (5uM), the “U87 % cell death rep3 (X4 P24 Washout expt)” value stood at 12%. Further, in series [1] (5µM), the “U87 % Cell Death rep3 (R5 P24 Washout expt)” value is on record as -10%. Also, the “U87 % cell death rep3 (R5 P24 NO Washout expt)” value in series [1] (5µM) is recorded as -9%. In [1] (5µM), the “U87 % cell death rep3 (X4 P24 NO Washout expt)” value stood at 46%. In series [1] (5µM), the “U87 Luc % cell death rep1” value is given as -52%. In addition, the “U87 Luc % cell death rep2” value in series [1] (5µM) was determined as 36%. Also, the results for the EC50 (with T. cruzi Tulahuen; in [2]; in series [7]) were 13 µM, 4.95 µM and 3.32 µM, respectively. In the series with zebrafish embryos, this compound displayed a Zebrafish % mortality of 100%. In the series with zebrafish embryos, the “Zebrafish Toxicity (mortality and dev abnl)” value is given as “y (altered phenotype (mortality, developmental abnormalities) appeared in more than 20% of cases it was considered toxic)”. Besides, in series [3], the “gametocyte late stage (IV-V) luciferase % inhibition” value was 5.69%. Moreover, the inhibition at 5 µM in series [4] (Human immunodeficiency virus 1, NL43, read-out: HIV JRFL % inhibition rep1 in U87 Luc) is -33%; in [4] (Human immunodeficiency virus 1, NL43, read-out: HIV JRFL % inhibition rep2 in U87 Luc) it was -10%; in series [4] (Human immunodeficiency virus 1, NL43, read-out: HIV NL4-3 % inhibition rep1 in U87 Luc), -135%. The compound also returned an area under the curve (AUC) in series [5] of under 12 µM·h. Further, the maximum concentration (Cmax) in [5] was under 1000 nM. Further, the “gametocyte early stage (I-III) GFP-MTR % inhibition” value in series [6] (0.5µM) is on record as 26%; in series [6] (5µM), 17%. Further, the inhibition at 100 µM in the series on wild type yeast cells (read-out: % Inhibition in WT yeast (PMT assay control), no added choline) turned out to be 0%; in the series with wild type yeast cells (read-out: % Inhibition in WT yeast (PMT assay control), with added choline), 0%.
